The values that follow come from publication PMC3824214, “A Novel Factor Xa-Inhibiting Peptide from Centipedes Venom” (International Journal of Peptide Research and Therapeutics, 2013).

“And” between values parts separate entries of the source, which are not always exact repeats. Identical values can stand only once. Like-named read-outs stand apart in the source and are kept apart here. Marks after values point to notes of the source that are not given here.

Data set [1] has as its system normal citrated PPP (platelet poor plasma). The data set is described as follows: in vitro PT clotting assay. It counts as biochemical, ICR mice. The following applies: sample diluted in PBS pH 8.34, mouse PPP, 3 min at 37 °C, triplicates, mean ± SE. The procedure:
(§1) Blood was drawn by Eyeball from ICR mice. The blood was separately centrifuged at 2,500×g for 10 min to obtain platelet poor plasma (PPP). For the in vitro aPTT assay, normal citrated PPP (50 μl) was incubated with sample solution (8, 6, 4, 2, 1 mg/ml, previously diluted in PBS, pH 8.34, 50 μl) and 100 μl aPTT reagent for 3 min at 37 °C. Clotting time was immediately recorded after the addition of 100 μl of 20 mM CaCl2. For the in vitro PT assay, normal citrated PPP (25 μl) was incubated with sample solution (8, 6, 4, 2, 1 mg/ml, previously diluted in PBS, pH 8.34, 25 μl) for 3 min at 37 °C. Clotting time was immediately recorded after the addition of 50 μl of PT reagent (Majdoub et al. [2009]). All coagulation assays were performed in triplicates. Heparin was used as a positive control, and PBS (pH 8.34) as model control. For ex vivo coagulation assays, samples were dissolved in saline and were intravenously injected (10 or 20 mg/kg) in ICR mice (6 animals/group). Five and 24 h after drug administration, blood was collected (drawn by eyeball), immediately centrifuged (3,000 rpm, 15 min), and the plasma was used to measure the aPTT and PT as previously described (Batista et al. [2010]).

In the next data set the test system is whole blood clotting. Put plainly: Whole blood clotting time in vivo, capillary glass tube method. Further details: species or system mice. The following applies: for Effect on whole blood clotting time: TNGYT 10 and 20 mg/kg, heparin 20 mg/kg, versus control group, P < 0.01; for CT (clotting time): six per group, mean ± SE, saline 273.2 s. The procedure:
Whole blood clotting time (CT) in mice was measured by capillary glass tube method (Li et al. [2004]). Mice (18–22 g body weight) were divided into four groups (both sexes, six per group). Two groups were received intravenous injection of 20 and 10 mg/kg body weight of the purified peptide for four consecutive days. Other groups were received normal saline and 20 mg/kg body weight of heparin (the positive control), respectively. Fifteen minutes after the last administration (positive control after 2 h), blood samples were collected through the retro-orbital plexus with a glass capillary and kept on a slide to allow for clotting. Stirring the blood with a dry needle every 30 s until needle wire can provoke a fibrous protein, when is defined as clotting time.

The test system of the next data set is bleeding time. Put plainly: Bleeding time in vivo, tail cut. On the set-up: species or system ICR mice. The note with it: for BT (bleeding time): 6 animals/group, mean ± SE, saline 315.2 s. The protocol:
The mice (both sexes, 18–22 g) were randomly divided into four groups. The samples were intravenously injected (10 or 20 mg/kg) in ICR mice (6 animals/group) once a day in four consecutive days. Fifteen minutes after the last administration (positive control after 2 h), the mice tail was marked with a tag in the distance of 3 mm to after peak, then cut in the mark. Then the tip of the tail was immersed in saline at 37 °C. Record the time from cutting the tip of the tail to stopping bleeding, the interval was called bleeding time (Kogushi et al. [2011]). Heparin was used as positive control, and 0.9 % saline as model control.

Data set [2] deals with normal citrated PPP (platelet poor plasma). It counts as biochemical, ICR mice. The following applies: for APTT: sample diluted in PBS pH 8.34, mouse PPP, 3 min at 37 °C, triplicates, mean ± SE. The protocol: as §1
For data set [3] the following is noted: from S. subspinipes mutilans; ref Kong et al. [2013]; cited from earlier work. The source says: The centipede contains many bioactive components, including 5-hydroxytryptamine, histamine, lipids, polysaccharides, and various enzymes (e.g. proteinases and esterases) (Knysak et al. [1998]; Gomes et al. [1983]). They have been widely used as traditional folk medicine to treat thrombotic diseases in China (Pemberton [1999]) for several hundred years. […] Wu et al. ([2009]) found centipede acidic protein (CAP) signif ...

In data set [4] the test system is plasma of treated mice (aPTT). The data set is described as follows: ex vivo aPTT assay. In kind it is in vivo, ICR mice. The note with it: for APTT: ex vivo, ICR mice, 6 animals/group, mean ± SE. The protocol:
as §1

Data set [5] has as its system plasma of treated mice (PT). Put plainly: ex vivo PT assay. It counts as in vivo, ICR mice. The note with it: for PT: ex vivo, ICR mice, 6 animals/group, mean ± SE. The procedure: as §1
A further data set concerns the target T1, human FXa (Homo sapiens, UniProt P00742).
T1 construct: Purified human FXa; purchased HYPHEN BioMed (Neuvile sur Oise, France)
The data set is described as follows: FXa inhibition assay, chromogenic substrate S-2222. In kind it is biochemical. The source says: Sephadex G-50 was obtained from Pharmacia (Uppsala, Sweden). Purified human FXa and chromogenic substrate of FXa (S2222) were purchased from HYPHEN BioMed (Neuvile sur Oise, France). Mice of both sexes were from Qinglongshan animal center (Nanjing, Jiangsu Province, China). All the animal protocols were approved by the Animal Care and Use Committee at China Pharmaceutical University. All other chemicals and reagents were at analytical grade.
Chromogenic substrate method was used to measure the FXa-inhibiting activity. Inhibition was determined by FXa residual activity on the chromogenic substrate BIOPHEN CS-11 (S-2222) (22), which liberates the chromophoric group pNA (p-nitroaniline) (van Wijk and Smit [1984]). Different concentrations of the peptide (5–60 mg/ml) were incubated with FXa for 30 min at 37 °C in PBS (pH 8.34). The reaction was initiated by adding the substrate into the peptide solution (Ibrahima et al. [2001]). The absorbance at 405 nm was recorded every 0.5 min in 5 min. In A–t curve, the curve slope was considered as reaction rate (v).
Inhibition rate(%)=V0- Vi/V0×100%, V0 is the rate of PBS (pH 8.34, model control), and Vi is the rate of peptide.

T1 sequence (P00742 235-488 limits assumed): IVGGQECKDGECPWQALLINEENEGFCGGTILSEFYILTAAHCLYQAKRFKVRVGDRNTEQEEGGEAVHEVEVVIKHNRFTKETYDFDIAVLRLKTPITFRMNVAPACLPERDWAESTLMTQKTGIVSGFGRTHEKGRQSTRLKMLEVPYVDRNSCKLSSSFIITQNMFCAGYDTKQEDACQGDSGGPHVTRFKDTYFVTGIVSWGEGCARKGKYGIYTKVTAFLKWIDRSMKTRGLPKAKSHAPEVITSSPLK
T1 sequence (P00742 41-179 partner limits assumed): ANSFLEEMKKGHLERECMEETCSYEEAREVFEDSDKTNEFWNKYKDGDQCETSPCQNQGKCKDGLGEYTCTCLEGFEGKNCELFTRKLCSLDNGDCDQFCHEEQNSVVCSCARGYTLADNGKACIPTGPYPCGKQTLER

Regarding Heparin [reference compound], the PT in data set [1] (1 mg/ml) is >60.0** s. In addition, the “Effect on whole blood clotting time” value in the data set on whole blood clotting is given as “significantly prolong whole blood clotting time”. Also, the “CT (clotting time)” value with whole blood clotting (positive control 20 mg/kg, 2 h after administration, mice) amounted to 718.8 ± 60.15 s. Besides, the “BT (bleeding time)” value in the data set with bleeding time (positive control 20 mg/kg, 2 h after last administration) is recorded as 804.3 ± 87.7 s. Moreover, the APTT in data set [2] (in vitro, 1 mg/ml) is recorded as >60.0** s.
As for “Ser-Gln-Leu (SQL) [anti-thrombotic peptide isolated from S. subspinipes mutilans]”, in data set [3], the Anti-thrombotic activity entry is recorded as “anti-thrombotic”.
As to Thr-Asn-Gly-Tyr-Thr (TNGYT), the PT in data set [1] (1 mg/ml) is 14.7 ± 0.6 s; in data set [1] (2 mg/ml), 15.3 ± 1.5 s; in data set [1] (4 mg/ml), 17.7 ± 0.6 s; in data set [1] (8 mg/ml, 0.9 % saline control 12.7 s) it was 23.3 s and 23.3 ± 1.5 s; in data set [5] (5 h after 10 mg/kg i.v., saline 15.7 s) it was 16.7 ± 0.6 s; in data set [5] (24 h after 10 mg/kg i.v., saline 17.7 s), 18.7 ± 1.5 s. In data set [5] (24 h after 20 mg/kg i.v., saline 17.7 s), this substance came in with a PT of 18.3 ± 0.6 s. Also, the “Alteration of aPTT ex vivo” value in data set [4] (10 or 20 mg/kg i.v., 5 and 24 h, mice) is recorded as “increases in the aPTT were observed”. Also, the APTT is reported as 59.0 ± 2.0 s in data set [4] (5 h after 10 mg/kg i.v., saline 49.0 s); 65.7 ± 3.1 s in data set [4] (5 h after 20 mg/kg i.v., saline 49.0 s); 49.3 ± 1.5 s in data set [4] (24 h after 10 mg/kg i.v., saline 47.0 s); 51.3 ± 2.3 s in data set [4] (24 h after 20 mg/kg i.v., saline 47.0 s); 36.7 ± 1.5 s in data set [2] (in vitro, 1 mg/ml); 44.0 ± 2.0 s in data set [2] (in vitro, 2 mg/ml). For the same substance, the APTT was 44.0 ± 1.0 s in data set [2] (in vitro, 4 mg/ml); 57 s and 57.0 ± 2.0 s in data set [2] (in vitro, 8 mg/ml, 0.9 % saline control 33.3 s). For the same substance, in data set [5] (10 or 20 mg/kg i.v., mice), the “Alteration of PT ex vivo” value is reported as “no significant alterations were observed in the PT”. In addition, the “CT (clotting time)” value is listed as 389.0 ± 35.74 s in the data set on whole blood clotting (10 mg/kg i.v., four consecutive days, 15 min after last administration, mice) and 463.0 ± 48.8 s with whole blood clotting (20 mg/kg i.v., four consecutive days, 15 min after last administration, mice). Moreover, in the data set with whole blood clotting, the “Effect on whole blood clotting time” value is “significantly prolong whole blood clotting time”. In the data set with whole blood clotting (same dose of 20 mg/kg, i.v., mice), the “Effect in prolonging the clotting time compared to heparin” value is listed as “about 50%”. Further, the “Inhibition of FXa activity” value at human FXa (60 mg/ml, 30 min at 37 °C, PBS pH 8.34, substrate S-2222, absorbance 405 nm) came out at 59.75%. In addition, on human FXa (versus Ac-AP-12, Amblyomin-X, Nymphal FXa inhibitor, AduNAP4), the “Inhibition rate of FXa relative to other protein/peptide FXa inhibitors” value is recorded as “lower than FXa inhibitors mentioned above”. Further, the “BT (bleeding time)” value in the data set with bleeding time (10 mg/kg i.v. once a day, four consecutive days, 15 min after last administration) came to 447.5 ± 78.1 s; in the data set on bleeding time (20 mg/kg i.v. once a day, four consecutive days, 15 min after last administration), 549.7 ± 60.9 s. The “Effect on bleeding time” value in the data set with bleeding time (10 and 20 mg/kg, versus model control, P < 0.01) is on record as “significantly prolong the bleeding time”. For the same substance, the “Risk of bleeding relative to heparin” value in the data set on bleeding time (equal dose 20 mg/kg, inferred from bleeding time) was “lower than that of heparin”. The “Biological activity, natural vs synthesized peptide (aPTT and PT assays)” value in data set [2] (aPTT and PT assays, data in Table 1 of Supplementary Data) is reported as “the same biological activity”. The “Potency relative to heparin, fold lower” value in data set [2] (in vitro assay, lower than heparin) is listed as “at least 8 -folded”. Moreover, in data set [2] (in vitro, aPTT and PT, versus heparin (1 mg/ml)), the “Action on aPTT and PT relative to heparin” value is given as “lower than the positive control heparin”.
